How the values were obtained:
[1] = Apoptogenic activity against Molt cells after 24 hr treatment at concentration 30 uM; format: functional, cell-based; conditions: Homo sapiens
Homo sapiens = species on record: Homo sapiens; experiment: Apoptogenic activity against peripheral blood lymphocytes after 24 hr treatment at concentration 30 uM; format: functional
[2] = Apoptogenic activity against K-422 cells after 24 hr treatment at concentration 30 uM; format: functional, cell-based; conditions: Homo sapiens
[3] = Aoptogenic activity against Molt cells after 24 hr treatment at concentration 30 uM; format: functional, cell-based; conditions: Homo sapiens

| Compound | Cells [1] [%] | Cells (Homo sapiens) [%] | Cells [2] [%] | Cells [3] [%] |
| --- | --- | --- | --- | --- |
| CCCCCCC/C=C/[C@H](O)[C@H](CO)NC(=O)CCCCC | 1 | 33.5 | 32.7 |  |
| CCCCCCCCC[C@H](F)[C@H](CO)NC(C)=O |  | 3 | 7.3 | 3 |
| CCCCCCCCC[C@H](F)[C@H](CO)NC(=O)CCCCC | 31.6 | 46 | 32 |  |
| CCCCCC(=O)N[C@@H](CO)[C@@H](F)CCc1ccccc1 | 2 | 0.5 | 2.5 |  |
| CCCCCCCCCCCCC/C=C/[C@@H](O)[C@H](CO)NC(C)=O | 51 | 48.8 | 27.7 |  |
| CCCCCCC/C=C/[C@H](F)[C@H](CO)NC(=O)CCCCC | 13.7 | 47.7 | 51.2 |  |
| CCCCCCCCC[C@H](O)[C@H](CO)NC(=O)CCCCC | 9 | 57 | 15 |  |
| CCCCCCC/C=C/[C@@H](F)[C@H](CO)NC(=O)CCCCC | 11 | 40 | 34.7 |  |
| CCCCCCC/C=C/[C@@H](O)[C@H](CO)NC(=O)CCCCC | 3.5 | 12 | 12.7 |  |

From ChEMBL document CHEMBL1131874, “Synthesis and apoptogenic activity of fluorinated ceramide and dihydroceramide analogues” (1999)
